Experimental data as given in patent publication EP0139983A1, “Crystalline salts of L or (S)-3-(3,4-dihydroxyphenyl)-2-methylalanine esters and process” (Merck & Co., Inc., priority 1983, dated 1985).
Where a name gives a salt, the structure may show the parent alone. Read-outs that look alike come from different tables or passages of the source.

Key:
[1] = Solubility in aqueous media; format: physicochemical; settings: salt solubility is system dependent (amount of salt present, relative amount of (R) and (S) salts)
[2] = Stability (aqueous environment, mechanical stress, heat and compression); format: physicochemical; settings: subjected to an aqueous environment or to mechanical stress such as grinding

| Compound | solubility [1] [grams per liter] | also measured |
| --- | --- | --- |
| CC(OC(=O)C(C)(C)C)OC(=O)C(C)(N)Cc1ccc(O)c(O)c1 (stereo not shown) [solvated tartaric acid salt mixture] | 156 to 383 |  |
| CC(OC(=O)C(C)(C)C)OC(=O)C(C)(N)Cc1ccc(O)c(O)c1 (mixture of isomers) [solvated phosphate salt mixture of (R,S)-POE ester of methyl] | 57 to 197 |  |
| CC(OC(=O)C(C)(C)C)OC(=O)[C@@](C)(N)Cc1ccc(O)c(O)c1 (stereo partly drawn) [POE ester bases, (R,S)-l-pivaloyloxyethyl (S)-3-(3,4-dihydroxyphenyl)-2-methylalaninate] |  | stability [2]: tend to be unstable |
| C[C@](N)(Cc1ccc(O)c(O)c1)C(=O)O (single isomer, unassigned) [methyldopa, L or (S)-3-(3,4-dihydroxyphenyl)-2-methylalanine] |  | solubility ([1]; read-out: solubility): 10000 µg/mL |
